Assay results as given in article PMC6158189, “A pharmacological probe identifies cystathionine β-synthase as a new negative regulator for ferroptosis” (Cell Death & Disease, 2018).

Target: T1, hCBS-FL (Homo sapiens, UniProt P35520)
T1 sequence (P35520 1-551): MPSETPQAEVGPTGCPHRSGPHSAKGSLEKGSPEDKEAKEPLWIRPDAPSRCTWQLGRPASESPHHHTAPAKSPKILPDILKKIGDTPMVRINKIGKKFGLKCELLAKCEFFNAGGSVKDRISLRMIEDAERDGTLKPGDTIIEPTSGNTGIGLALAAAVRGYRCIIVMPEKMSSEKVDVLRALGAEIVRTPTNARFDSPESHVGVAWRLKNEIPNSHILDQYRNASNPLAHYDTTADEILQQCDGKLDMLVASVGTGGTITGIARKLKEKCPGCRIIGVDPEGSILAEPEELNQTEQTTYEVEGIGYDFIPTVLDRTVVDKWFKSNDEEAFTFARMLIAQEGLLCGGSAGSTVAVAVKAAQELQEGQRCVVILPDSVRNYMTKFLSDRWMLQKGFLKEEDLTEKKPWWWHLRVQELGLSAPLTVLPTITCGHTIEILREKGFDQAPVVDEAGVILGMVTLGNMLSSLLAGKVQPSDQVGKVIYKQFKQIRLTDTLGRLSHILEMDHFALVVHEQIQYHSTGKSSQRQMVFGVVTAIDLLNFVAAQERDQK
Assay: H2S in HEK293T cells transiently expressing hCBS (AzMC probe)
Assay type: cell-based
Settings: 10 μM, 8 h
Protocol: HEK293T cells were transiently transfected with empty vector (EV, i and ii), hCBS-FL (iii and iv) or hCSE (v and vi) plasmids, followed by incubation with DMSO (i–iii and v) or 10 μM CH004 (iv and vi) for 8 h before staining with 50 μM AzMC, a H2S-specific probe (“Materials and Methods” section). For larger fluorescent and bright-field images, please see Supplementary Figure 4. The expression levels of hCBS or hCSE in HEK293T cells after transient transfections were determined by western blotting using an anti-CBS antibody (3E1, 1:2000; Abnova) or anti-CSE antibody (1:500, GeneTex). The densities of protein bands for hCBS or hCSE in the blots were quantified with the ImageJ software (National Institutes of Health, Bethesda, MD, USA) and expressed as ratios of respective control (EV group). […] The fluorescent images of the H2S (blue) were accordingly quantified (“Materials and Methods” section) with ImageJ. […] A representative fluorescence image from three independent experiments is shown. […]
H2S levels in living cells were detected using a H2S-specific fluorescent probe according to a protocol described previously[31],[55]. […] After incubation with 50 μM AzMC at 37 °C for 30 min, the cells were washed 4 times with PBS, and the fluorescent images were recorded with excitation by 405 nm laser by using a A1Si (Nikon) confocal microscope. […]

Cn1nc(Cc2ccccc2)nc2c(=O)n(C)c(=O)nc1-2 [CH004, 3-benzyl-1,6-dimethylpyrimido[5,4-e][1,2,4]triazine-5,7(1H,6H)-dione]
decrease in H2S: ~ 50%
